We go through two compounds from ChEMBL document CHEMBL4680122, “Design, synthesis and biological evaluation of new Axl kinase inhibitors containing 1,3,4-oxadiazole acetamide moiety as novel linker” (Eur J Med Chem, 2020).

Assay [1] relates to MCF7. Kind of assay: Antiproliferative activity against human MCF7 cells measured after 72 hrs by MTT assay. The assay is classed as functional, cell-based. The conditions noted are these: MCF7, 72 h. A general note: Formazan colour is commonly taken as a measure of viable cells.
Assay [2] deals with A549. Briefly: cells. The conditions noted are these: Homo sapiens, A549, 72 h.
Description: Antiproliferative activity against human A549 cells measured after 72 hrs by MTT assay
The target of assay [3] is Tyrosine-protein kinase receptor UFO (Homo sapiens) (UniProt P30530). The conditions noted are these: dose 100.0 nM, time 1.0 hrs.
Chain of Tyrosine-protein kinase receptor UFO (Homo sapiens) (P30530 whole entry): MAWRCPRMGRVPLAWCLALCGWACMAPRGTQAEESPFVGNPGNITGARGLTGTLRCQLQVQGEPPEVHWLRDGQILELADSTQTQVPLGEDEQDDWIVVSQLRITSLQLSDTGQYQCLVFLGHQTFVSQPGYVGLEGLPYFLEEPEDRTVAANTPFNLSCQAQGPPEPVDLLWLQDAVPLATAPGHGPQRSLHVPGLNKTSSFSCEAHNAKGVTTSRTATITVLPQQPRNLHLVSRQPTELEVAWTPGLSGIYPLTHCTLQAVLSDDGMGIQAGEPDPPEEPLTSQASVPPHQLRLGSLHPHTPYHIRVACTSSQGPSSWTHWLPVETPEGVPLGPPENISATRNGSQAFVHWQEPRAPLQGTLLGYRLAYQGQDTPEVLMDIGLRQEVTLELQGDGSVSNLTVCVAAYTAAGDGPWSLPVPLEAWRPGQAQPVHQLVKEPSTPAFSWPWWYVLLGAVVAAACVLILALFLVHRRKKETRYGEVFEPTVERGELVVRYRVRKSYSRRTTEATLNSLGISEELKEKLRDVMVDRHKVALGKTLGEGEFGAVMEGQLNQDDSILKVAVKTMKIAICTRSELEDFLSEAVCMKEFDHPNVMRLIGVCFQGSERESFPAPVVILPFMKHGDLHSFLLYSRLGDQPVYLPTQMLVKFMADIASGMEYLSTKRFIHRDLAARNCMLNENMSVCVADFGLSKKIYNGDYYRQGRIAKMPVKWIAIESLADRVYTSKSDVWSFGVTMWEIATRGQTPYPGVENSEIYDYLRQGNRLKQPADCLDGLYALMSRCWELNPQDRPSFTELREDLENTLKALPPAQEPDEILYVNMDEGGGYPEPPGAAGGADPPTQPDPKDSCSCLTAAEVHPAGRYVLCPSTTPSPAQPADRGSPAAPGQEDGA
Assay [4] relates to PC-3. Kind of assay: cells. Particulars: Homo sapiens, PC-3, 72 h.
Description: Antiproliferative activity against human PC-3 cells measured after 72 hrs by MTT assay
For assay [5], the target named is T1, Tyrosine-protein kinase Mer (Homo sapiens, UniProt Q12866).
T1 sequence (Q12866 whole entry): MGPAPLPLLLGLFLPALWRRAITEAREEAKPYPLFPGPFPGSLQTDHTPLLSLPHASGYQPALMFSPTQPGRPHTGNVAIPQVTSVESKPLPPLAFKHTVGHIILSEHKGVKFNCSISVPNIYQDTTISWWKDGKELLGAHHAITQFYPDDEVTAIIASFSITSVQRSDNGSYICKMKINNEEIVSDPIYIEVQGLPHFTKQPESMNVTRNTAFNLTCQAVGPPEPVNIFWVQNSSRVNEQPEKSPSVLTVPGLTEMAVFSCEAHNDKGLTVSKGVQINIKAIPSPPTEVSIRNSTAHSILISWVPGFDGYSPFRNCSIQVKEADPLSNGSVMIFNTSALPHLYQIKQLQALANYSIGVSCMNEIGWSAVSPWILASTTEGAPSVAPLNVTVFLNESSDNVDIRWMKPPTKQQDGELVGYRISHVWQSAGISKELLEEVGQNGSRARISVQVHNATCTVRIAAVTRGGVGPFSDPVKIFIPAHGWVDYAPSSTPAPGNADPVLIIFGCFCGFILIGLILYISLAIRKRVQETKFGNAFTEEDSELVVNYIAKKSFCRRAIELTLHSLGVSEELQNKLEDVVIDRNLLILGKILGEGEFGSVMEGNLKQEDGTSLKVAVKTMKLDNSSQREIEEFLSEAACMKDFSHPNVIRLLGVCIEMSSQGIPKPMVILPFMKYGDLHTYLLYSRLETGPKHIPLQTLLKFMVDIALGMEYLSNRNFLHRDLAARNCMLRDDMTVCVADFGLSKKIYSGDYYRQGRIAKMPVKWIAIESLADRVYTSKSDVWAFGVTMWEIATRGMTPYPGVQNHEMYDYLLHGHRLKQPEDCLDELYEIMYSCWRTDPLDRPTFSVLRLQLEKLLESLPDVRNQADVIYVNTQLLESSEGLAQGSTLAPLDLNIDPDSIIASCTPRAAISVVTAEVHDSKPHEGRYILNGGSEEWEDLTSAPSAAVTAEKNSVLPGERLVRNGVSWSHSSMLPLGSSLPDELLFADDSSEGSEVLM
Briefly: Inhibition of MER (unknown origin).

The target of assay [6] is Hepatocyte growth factor receptor (Homo sapiens, UniProt P08581). Kind of assay: Inhibition of human N-terminal GST-fused c-MET cytoplasmic domain (956 to 1390 residues) expressed in baculovirus expression system using Srctide as substrate measured after 1 hr by mobility shift assay.
Chain of Hepatocyte growth factor receptor (P08581 whole entry, the tested form may be a part): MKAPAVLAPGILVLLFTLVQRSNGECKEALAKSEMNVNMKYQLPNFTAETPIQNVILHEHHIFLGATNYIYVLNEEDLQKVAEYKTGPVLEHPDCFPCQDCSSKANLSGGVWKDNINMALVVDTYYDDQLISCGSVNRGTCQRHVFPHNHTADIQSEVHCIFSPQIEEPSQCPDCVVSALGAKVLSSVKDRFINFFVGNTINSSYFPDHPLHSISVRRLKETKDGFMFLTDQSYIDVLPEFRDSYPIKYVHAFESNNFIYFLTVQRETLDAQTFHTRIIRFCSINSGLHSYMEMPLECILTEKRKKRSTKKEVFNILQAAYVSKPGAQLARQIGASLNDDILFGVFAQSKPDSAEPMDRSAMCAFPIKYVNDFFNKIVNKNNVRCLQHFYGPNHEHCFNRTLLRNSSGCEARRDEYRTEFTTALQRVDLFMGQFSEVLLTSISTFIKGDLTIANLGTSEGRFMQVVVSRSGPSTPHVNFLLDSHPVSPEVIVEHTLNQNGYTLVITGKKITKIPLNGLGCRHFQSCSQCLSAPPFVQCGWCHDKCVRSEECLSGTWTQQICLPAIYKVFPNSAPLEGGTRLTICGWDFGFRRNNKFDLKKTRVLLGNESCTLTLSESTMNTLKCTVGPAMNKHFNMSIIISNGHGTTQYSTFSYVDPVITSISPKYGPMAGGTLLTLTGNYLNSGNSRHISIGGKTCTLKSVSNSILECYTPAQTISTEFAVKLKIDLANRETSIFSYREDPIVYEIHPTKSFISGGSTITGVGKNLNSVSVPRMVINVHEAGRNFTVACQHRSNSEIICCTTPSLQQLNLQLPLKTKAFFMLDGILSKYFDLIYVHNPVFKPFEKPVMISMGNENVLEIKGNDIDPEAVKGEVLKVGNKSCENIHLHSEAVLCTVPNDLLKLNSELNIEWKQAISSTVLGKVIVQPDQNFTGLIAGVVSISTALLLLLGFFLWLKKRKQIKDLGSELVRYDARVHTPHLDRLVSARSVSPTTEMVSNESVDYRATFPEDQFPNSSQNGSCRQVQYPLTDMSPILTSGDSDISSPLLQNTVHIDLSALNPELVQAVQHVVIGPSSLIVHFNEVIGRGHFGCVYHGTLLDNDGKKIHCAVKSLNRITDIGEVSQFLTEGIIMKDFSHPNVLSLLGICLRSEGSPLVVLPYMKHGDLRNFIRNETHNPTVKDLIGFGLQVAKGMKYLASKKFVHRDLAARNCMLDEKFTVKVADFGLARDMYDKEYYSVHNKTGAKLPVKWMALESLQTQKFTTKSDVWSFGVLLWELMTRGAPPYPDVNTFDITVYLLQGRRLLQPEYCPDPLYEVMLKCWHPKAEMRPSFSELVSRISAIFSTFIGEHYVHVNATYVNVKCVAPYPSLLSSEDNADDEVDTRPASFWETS
The target in assay [7] is T2, Receptor-type tyrosine-protein kinase FLT3 (Homo sapiens, UniProt P36888).
T2 sequence (P36888 whole entry): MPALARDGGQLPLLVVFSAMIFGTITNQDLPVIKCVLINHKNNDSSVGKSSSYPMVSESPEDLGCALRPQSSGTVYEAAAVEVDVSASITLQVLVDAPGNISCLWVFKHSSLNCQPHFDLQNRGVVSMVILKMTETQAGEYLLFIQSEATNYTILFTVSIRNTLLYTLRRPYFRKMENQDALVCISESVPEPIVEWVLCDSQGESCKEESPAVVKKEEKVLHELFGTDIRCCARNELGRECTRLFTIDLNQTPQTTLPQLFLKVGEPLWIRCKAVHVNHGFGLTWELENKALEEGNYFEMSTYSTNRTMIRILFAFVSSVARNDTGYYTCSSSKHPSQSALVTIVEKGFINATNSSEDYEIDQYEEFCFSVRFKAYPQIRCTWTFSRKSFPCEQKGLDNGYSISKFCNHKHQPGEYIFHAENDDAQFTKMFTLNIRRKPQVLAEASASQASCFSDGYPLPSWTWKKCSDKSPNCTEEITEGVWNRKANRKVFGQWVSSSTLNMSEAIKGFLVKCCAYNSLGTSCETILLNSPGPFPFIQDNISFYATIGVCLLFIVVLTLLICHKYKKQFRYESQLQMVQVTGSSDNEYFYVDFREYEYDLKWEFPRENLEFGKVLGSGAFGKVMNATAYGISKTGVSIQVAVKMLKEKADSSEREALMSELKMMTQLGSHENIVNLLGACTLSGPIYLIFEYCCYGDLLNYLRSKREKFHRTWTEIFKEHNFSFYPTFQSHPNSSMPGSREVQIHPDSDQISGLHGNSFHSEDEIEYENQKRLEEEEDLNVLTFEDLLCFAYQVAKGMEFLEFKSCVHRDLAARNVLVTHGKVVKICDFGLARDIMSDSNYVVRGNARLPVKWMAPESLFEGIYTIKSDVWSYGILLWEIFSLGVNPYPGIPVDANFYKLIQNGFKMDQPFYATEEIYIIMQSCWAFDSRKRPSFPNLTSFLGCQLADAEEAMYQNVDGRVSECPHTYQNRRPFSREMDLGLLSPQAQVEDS
Briefly: Inhibition of human N-terminal GST-fused FLT3 cytoplasmic domain (564 to 993 residues) expressed in baculovirus expression system using Srctide as substrate measured after 1 hr by mobility shift assay.

In assay [8] the target is Platelet-derived growth factor receptor beta (Homo sapiens, UniProt P09619). Kind of assay: Inhibition of human His-tagged PDGFRB cytoplasmic domain expressed in baculovirus expression system using peptide substrate measured after 1 hr by mobility shift assay.
Chain of Platelet-derived growth factor receptor beta (P09619 whole entry, the tested form may be a part): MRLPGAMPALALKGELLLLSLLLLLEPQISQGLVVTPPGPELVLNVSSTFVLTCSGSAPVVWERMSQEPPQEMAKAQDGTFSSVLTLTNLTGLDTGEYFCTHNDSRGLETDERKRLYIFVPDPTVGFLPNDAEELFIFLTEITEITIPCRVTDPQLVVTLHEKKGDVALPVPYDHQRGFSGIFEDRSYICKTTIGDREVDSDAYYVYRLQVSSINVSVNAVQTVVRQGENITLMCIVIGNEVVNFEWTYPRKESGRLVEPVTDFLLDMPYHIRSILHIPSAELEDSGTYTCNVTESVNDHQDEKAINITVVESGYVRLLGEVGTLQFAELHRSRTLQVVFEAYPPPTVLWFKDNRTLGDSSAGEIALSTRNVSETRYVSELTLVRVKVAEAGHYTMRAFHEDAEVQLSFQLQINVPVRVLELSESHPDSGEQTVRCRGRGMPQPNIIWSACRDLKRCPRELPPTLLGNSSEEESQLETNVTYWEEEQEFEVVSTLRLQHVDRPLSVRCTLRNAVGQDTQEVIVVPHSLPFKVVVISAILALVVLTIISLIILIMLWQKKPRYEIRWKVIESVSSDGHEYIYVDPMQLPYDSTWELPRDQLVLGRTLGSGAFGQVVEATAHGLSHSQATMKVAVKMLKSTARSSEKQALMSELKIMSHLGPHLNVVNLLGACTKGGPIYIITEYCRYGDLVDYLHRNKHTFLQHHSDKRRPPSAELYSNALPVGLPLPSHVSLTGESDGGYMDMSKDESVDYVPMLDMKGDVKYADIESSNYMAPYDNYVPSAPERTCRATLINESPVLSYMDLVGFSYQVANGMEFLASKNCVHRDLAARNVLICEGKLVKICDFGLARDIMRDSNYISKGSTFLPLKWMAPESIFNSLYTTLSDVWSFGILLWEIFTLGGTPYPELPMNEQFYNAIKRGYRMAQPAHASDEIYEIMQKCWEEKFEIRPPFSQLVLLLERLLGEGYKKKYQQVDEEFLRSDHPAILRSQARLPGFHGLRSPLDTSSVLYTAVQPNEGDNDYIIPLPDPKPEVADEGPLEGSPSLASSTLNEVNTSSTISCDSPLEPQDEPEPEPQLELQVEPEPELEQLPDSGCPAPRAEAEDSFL
Assay [9] deals with Vascular endothelial growth factor receptor 2 (Homo sapiens, UniProt P35968). Kind of assay: Inhibition of human N-terminal GST-fused KDR cytoplasmic domain (790 to 1356 residues) expressed in baculovirus expression system using CSKtide as substrate measured after 1 hr by mobility shift assay.
Chain of Vascular endothelial growth factor receptor 2 (P35968 whole entry, the tested form may be a part): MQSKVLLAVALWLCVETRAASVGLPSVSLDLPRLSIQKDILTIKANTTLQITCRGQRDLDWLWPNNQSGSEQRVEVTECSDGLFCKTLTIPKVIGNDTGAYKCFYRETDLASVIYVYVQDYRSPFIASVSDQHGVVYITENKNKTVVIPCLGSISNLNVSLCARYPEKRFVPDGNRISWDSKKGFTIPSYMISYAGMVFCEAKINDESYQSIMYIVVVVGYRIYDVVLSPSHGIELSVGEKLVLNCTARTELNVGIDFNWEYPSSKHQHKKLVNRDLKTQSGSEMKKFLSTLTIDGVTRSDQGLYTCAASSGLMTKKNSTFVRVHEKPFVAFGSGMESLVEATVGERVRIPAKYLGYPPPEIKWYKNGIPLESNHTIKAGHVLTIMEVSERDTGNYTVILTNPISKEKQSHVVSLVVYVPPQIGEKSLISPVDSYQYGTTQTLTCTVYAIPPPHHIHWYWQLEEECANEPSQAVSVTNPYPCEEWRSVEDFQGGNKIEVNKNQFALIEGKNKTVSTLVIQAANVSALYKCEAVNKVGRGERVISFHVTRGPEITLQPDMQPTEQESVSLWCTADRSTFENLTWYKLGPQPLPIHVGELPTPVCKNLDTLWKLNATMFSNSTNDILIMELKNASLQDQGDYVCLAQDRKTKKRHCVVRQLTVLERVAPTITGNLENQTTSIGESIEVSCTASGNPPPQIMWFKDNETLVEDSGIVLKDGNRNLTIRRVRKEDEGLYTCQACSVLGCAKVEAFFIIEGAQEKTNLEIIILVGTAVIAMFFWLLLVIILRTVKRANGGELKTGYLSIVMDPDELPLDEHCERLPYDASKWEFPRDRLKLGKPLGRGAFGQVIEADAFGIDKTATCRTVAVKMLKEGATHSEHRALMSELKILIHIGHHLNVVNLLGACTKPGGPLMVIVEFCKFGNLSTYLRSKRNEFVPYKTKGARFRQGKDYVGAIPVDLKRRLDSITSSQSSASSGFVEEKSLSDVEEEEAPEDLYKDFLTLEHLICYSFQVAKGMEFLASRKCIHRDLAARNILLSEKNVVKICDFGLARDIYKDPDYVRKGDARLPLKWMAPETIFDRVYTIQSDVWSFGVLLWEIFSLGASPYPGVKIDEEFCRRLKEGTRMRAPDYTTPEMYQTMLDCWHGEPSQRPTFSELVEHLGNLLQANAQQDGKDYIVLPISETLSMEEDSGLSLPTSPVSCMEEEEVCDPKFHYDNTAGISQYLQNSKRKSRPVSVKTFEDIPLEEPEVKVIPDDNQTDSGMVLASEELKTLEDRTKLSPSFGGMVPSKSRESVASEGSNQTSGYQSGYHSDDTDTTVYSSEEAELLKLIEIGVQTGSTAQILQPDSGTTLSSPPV
In assay [10] the test system is HT-29. Briefly: Antiproliferative activity against human HT-29 cells measured after 72 hrs by MTT assay. The conditions noted are these: HT-29, 72 h.
Assay [11] concerns the target Mast/stem cell growth factor receptor Kit (Homo sapiens, UniProt P10721). Kind of assay: Inhibition of human N-terminal GST-tagged c-Kit cytoplasmic domain (544 to end residues) expressed in baculovirus infected Sf21 insect cells using peptide substrate measured after 1 hr by mobility shift assay.

One may read the IC50 as the concentration needed to halve the response being measured. Usually inhibition stands for the relative decrease from the control value, in per cent. On to `COc1cc2c(Oc3ccc(NC(=O)C4(C(=O)Nc5ccc(F)cc5)CC4)cc3F)ccnc2cc1OCCCN1CCOCC1` [FORETINIB], for which the concentration for half-maximal inhibition (IC50) in [1] came out at 2000 nM; in assay [2], 210 nM; in [4], 810 nM. In addition, in [3], the inhibition turned out to be 88%.

In the case of `COc1cc2c(Oc3ccc(NC(=O)C(C)c4nnc(-c5ccc(F)cc5)o4)cc3F)ccnc2cc1OCCCN1CCC(C)CC1` (centres undefined), the IC50 is above 200 nM in assay [5]; 1000 nM in [1]; 62 nM in [6]; 32 nM in [2]; 530 nM in assay [4]; above 200 nM in assay [7]. Besides, the IC50 in assay [8] is above 200 nM; in assay [9], 40 nM; in assay [10], 1460 nM; in assay [11], 47 nM.
